Laboratory results published in publication PMC6690746 (European journal of medicinal chemistry, 2018).
“Also recorded” adds a separate entry of the source.

How the values were obtained:
Format in all cases: cell-based, human
T98G cells = assay: Antitumor activity; details: for EC50: Homo sapiens, read-out: Antitumor activity EC50; for Maximal killing activity: concentration not stated at this place; for Fold increase in EC50 value compared with 8: versus compound 8 (87 nM)
[1] = tested on: NCI-60 cancer cell line panel; assay: NCI 60 cell screen; details: for Loss in cell number: NCI-60, the 4 cell lines killed
HepG2 (liver) = assay: Cell-killing activity; details: HepG2, at 1–10 μM
PD-GBM cells = assay: Cell-killing activity in PD-GBM cells, all subtypes together; details: applied at 1–10 μM
[2] = NCI-60, the 11 cell lines with halted proliferation
[3] = NCI-60, the 41 cell lines with reduced proliferation rate

## COc1ccc(/C=C\c2cc(OC)c(OC)c(OC)c2)cc1O [Compound 1, combretastatin A-4, reference compound]
T98G cells; 72 h, at 10 nM
  Maximal killing: 30.4% ± 2.1
T98G cells; 72 h
  EC50: 0.6 nM

## COC(=O)Nc1nc2cc(C(=O)c3cccs3)ccc2[nH]1 [Compound 3, nocodazole, reference compound]
T98G cells; 72 h, at 10 μM
  Maximal killing (% ± SEM): 45.6% ± 1.7
T98G cells; 72 h
  EC50: 29 nM

## CCn1c2ccccc2c2cc(C(=O)c3ccc(C)c4ccccc34)ccc21 [Compound 8, 9-ethyl-3-[(4-methylnaphthalen-1-yl)carbonyl]-9H-carbazole]
[1]
  Loss in cell number: 13% to 60%
[1]; [2]
  Percent growth inhibition: 9% to −1%
[1]; [3]
  Percent growth inhibition: 67% to 10%
T98G cells; 72 h
  Maximal killing activity: 35–45%

## CCn1c2ccccc2c2cc(C(=O)N3CCN(C)CC3)ccc21 [Compound 9, 9-ethyl-3-(4-methylpiperazine-1-carbonyl)-9H-carbazole]
T98G cells; 72 h
  Effect on T98G cells in words: only weakly active at concentrations above five micromolar or essentially inactive; also recorded: did not significantly affect T98G cell viability

## CCn1c2ccccc2c2cc(C(=O)Cc3ccccc3)ccc21 [Compound 13, 1-(9-ethyl-9H-carbazol-3-yl)-2-phenylethan-1-one]
T98G cells; 72 h
  Effect on T98G cells in words: only weakly active at concentrations above five micromolar or essentially inactive; also recorded: did not significantly affect T98G cell viability

## CCn1c2ccccc2c2cc(C(=O)c3cccc4ccccc34)ccc21 [Compound 14, 9-ethyl-3-(naphthalene-1-carbonyl)-9H-carbazole]
T98G cells
  Fold increase in EC50 value compared with 8: 20 fold

## CCCn1c2ccccc2c2cc(C(=O)c3ccc(C)c4ccccc34)ccc21 [Compound 16, 9-propyl-3-[(4-methylnaphthalen-1-yl)carbonyl]-9H-carbazole]
T98G cells; 72 h
  Effect on T98G cells in words: only weakly active at concentrations above five micromolar or essentially inactive; also recorded: did not significantly affect T98G cell viability
T98G cells
  Fold increase in EC50 value compared with 8: 115 fold

## Cc1ccc(C(=O)c2ccc3c(c2)c2ccccc2n3CC(F)(F)F)c2ccccc12 [Compound 18, 3-(4-methylnaphthalene-1-carbonyl)-9-(2,2,2-trifluoroethyl)-9H-carbazole]
T98G cells; 72 h
  Effect on T98G cells in words: only weakly active at concentrations above five micromolar or essentially inactive
  Maximal killing activity: 35–45%
T98G cells
  Fold increase in EC50 value compared with 8: 64 fold

## CCn1c2ccccc2c2cc(C(=O)c3cccc4ncccc34)ccc21 [Compound 20, 9-ethyl-3-(quinoline-5-carbonyl)-9H-carbazole]
[1]
  Loss in cell number: 13% to 60%
[1]; [2]
  Percent growth inhibition: 9% to −1%
[1]; [3]
  Percent growth inhibition: 67% to 10%

## CCn1c2ccccc2c2cc(C(=O)c3cccc4c3CCCN4)ccc21 [Compound 23]
[1]; NCI-60 panel
  Effect on NCI-60 cell lines in words: did not significantly affect the viability and proliferation of any of the cell lines
  Growth inhibition: Delta: 10.42
[1]; NCI-60 panel, over all cell lines
  Growth inhibition: Mean: 102.05
T98G cells; 72 h
  Effect on T98G cells in words: only weakly active at concentrations above five micromolar or essentially inactive; also recorded: did not significantly affect T98G cell viability

## CCn1c2ccccc2c2cc(C(=O)c3cccc4c3NCCC4)ccc21 [Compound 24, 9-ethyl-3-(1,2,3,4-tetrahydroquinoline-8-carbonyl)-9H-carbazole]
T98G cells; 72 h
  Effect on T98G cells in words: only weakly active at concentrations above five micromolar or essentially inactive; also recorded: did not significantly affect T98G cell viability

## CCn1c2ccccc2c2cc(C(=O)N3CCCc4ccccc43)ccc21 [Compound 25, 9-ethyl-3-[(1,2,3,4-tetrahydroquinolin-1-yl)carbonyl]-9H-carbazole]
HepG2 (liver)
  Activity in HepG2 cells in words: inactive
PD-GBM cells
  PD-GBM cells killed: 95–100%

## CCn1c2ccccc2c2cc(C(=S)c3ccc(C)c4ccccc34)ccc21 [Compound 26, 9-ethyl-3-(4-methylnaphthalene-1-carbothioyl)-9H-carbazole]
T98G cells; 72 h
  Effect on T98G cells in words: only weakly active at concentrations above five micromolar or essentially inactive; also recorded: did not significantly affect T98G cell viability

## CCn1c2ccccc2c2cc(C(O)c3ccc(C)c4ccccc34)ccc21 (stereo not drawn) [Compound 27, (9-ethyl-9H-carbazol-3-yl)(4-methylnaphthalen-1-yl)methanol]
[1]
  Loss in cell number: 13% to 60%
[1]; [2]
  Percent growth inhibition: 9% to −1%
[1]; [3]
  Percent growth inhibition: 67% to 10%
T98G cells
  Fold increase in EC50 value compared with 8: 6 fold

## CCn1c2c(c3ccccc31)CN(C(=O)c1ccc(C)c3ccccc13)CC2 [Compound 35, 5-ethyl-2-[(4-methylnaphthalen-1-yl)carbonyl]-1H,2H,3H,4H,5H-pyrido[4,3-b]indole]
T98G cells; 72 h
  Maximal killing activity: 35–45%

## CC[C@]1(O)C[C@@H]2CN(CCc3c([nH]c4ccccc34)[C@@](C(=O)OC)(c3cc4c(cc3OC)N(C)[C@H]3[C@@](O)(C(=O)OC)[C@H](OC(C)=O)[C@]5(CC)C=CCN6CC[C@]43[C@@H]65)C2)C1 [vinblastine, reference compound]
T98G cells; 72 h
  Maximal killing activity: 36.0% ± 2.3
